Measurements reported in patent US20080194585A1, “Fungicidal Pyrazine Derivatives” (priority 2005, published 2008).
Marks after values point to notes of the source that are not given here.

Experiments:
Plasmopara viticola = test: Test D: grape downy mildew, spray after inoculation of grape seedlings; type: in vivo; settings: 200 ppm
Source text: Upon removal, disease ratings were made. […] A dash (-) indicates no test results.

Phytophthora infestans = test: whole plant or invertebrate; type: in vivo; settings: 200 ppm
Sclerotinia sclerotiorum = test: Test C: cucumber white mold, preventive spray on cucumber seedlings
Rhizoctonia oryzae = test: Test G: turf brown patch, preventive spray on creeping bent grass seedlings
Experimental: (the causal agent of turf brown patch) and incubated in a saturated atmosphere at 27° C. for 24 h, and then moved to a growth chamber at 27° C. for 5 days, after which disease ratings were made.

Septoria nodorum = test: Test H: wheat glum blotch, preventive spray on wheat seedlings
Experimental: (the causal agent of wheat glum blotch) and incubated in a saturated atmosphere at 20° C. for 48 h, and then moved to a growth chamber at 22° C. for 5 days, after which disease ratings were made.

fusarium graminearium = test: Test I: wheat head scab, preventive spray on wheat seedlings; settings: 200 ppm
Experimental: (the causal agent of wheat head scab) and incubated in a saturated atmosphere at 20° C. for 72 h, and then moved to a growth chamber at 22° C. for 5 days, after which disease ratings were made.

Septoria tritici = test: Test J: wheat leaf blotch, preventive spray on wheat seedlings; type: in vivo
Source text: A dash (-) indicates no test results.

[1] = test system: Erysiphe graminis f. sp. tritici; test: Test L: wheat powdery mildew, preventive spray on wheat seedlings
Botrytis cinerea = test: Test E: tomato botrytis, preventive spray on tomato seedlings
Pythium aphanidermatum = test: Test A: bluegrass pythium blight, preventive spray on bluegrass seedlings; settings: 200 ppm
[2] = test system: Colletotrichum orbiculare; test: Test B: cucumber Colletotrichum anthracnose, preventive spray on cucumber seedlings
[3] = test system: Puccinia recondita f. sp. tritici; test: Test K: wheat leaf rust, preventive spray on wheat seedlings

SMILES | Test D disease control rating (Plasmopara viticola) [%] | Test F disease control rating (Phytophthora infestans) [%] | Test C disease control rating (Sclerotinia sclerotiorum; 200 ppm) [%] | Test G disease control rating (Rhizoctonia oryzae; 200 ppm) [%] | Test H disease control rating (Septoria nodorum; 200 ppm) [%] | Test I disease control rating (fusarium graminearium) [%] | Test J disease control rating (Septoria tritici; 40 ppm (*)) | Test L disease control rating ([1]; 200 ppm) [%] | Test E disease control rating (Botrytis cinerea; 200 ppm) [%] | Test A disease control rating (Pythium aphanidermatum) [%] | Test B disease control rating ([2]; 200 ppm) [%] | Test K disease control rating ([3]; 200 ppm) [%] | Test J disease control rating (Septoria tritici; 200 ppm) [%] | Test C disease control rating (Sclerotinia sclerotiorum; 40 ppm (*)) | Test G disease control rating (Rhizoctonia oryzae; 40 ppm (*)) | Test H disease control rating (Septoria nodorum; 40 ppm (*)) | Test L disease control rating ([1]; 40 ppm (*)) | Test E disease control rating (Botrytis cinerea; 40 ppm (*)) | Test B disease control rating ([2]; 40 ppm (*)) | Test K disease control rating ([3]; 40 ppm (*))
CC(C)Cn1c(-c2ccc(Cl)cc2F)c(Cl)nc(-n2cccn2)c1=O [compound 45] | 0 | 0 | 85 | 26 | 100 | 82 | 100* % | 85 | 100 | 0 | 100 | 100 | – | – | – | – | – | – | – | –
O=c1c(-n2cccn2)nc(Cl)c(-c2c(F)cccc2F)n1C1CCCCC1 [compound 47] | 0 | 0 | 0 | 92 | 99 | 78 | – | 99 | 100 | 74 | 54 | 95 | 100 | – | – | – | – | – | – | –
CC(C)Cn1c(-c2cccc(F)c2F)c(Cl)nc(-n2cccn2)c1=O [compound 50] | 0 | 0 | 98 | 95 | 100 | 0 | 100* % | 94 | 100 | 0 | 0 | 100 | – | – | – | – | – | – | – | –
CC(C)Cn1c(-c2cc(F)ccc2F)c(Cl)nc(-n2cccn2)c1=O [compound 56] | 29 | 0 | 99 | 92 | 100 | 60 | 100* % | 99 | 100 | 0 | 99 | 99 | – | – | – | – | – | – | – | –
CC(C)Cn1c(-c2c(F)ccc(F)c2F)c(Cl)nc(-n2cccn2)c1=O [compound 57] | 32 | 0 | 98 | 98 | 100 | 0 | 99* % | 100 | 100 | 0 | 100 | 100 | – | – | – | – | – | – | – | –
CCC(C)Cn1c(-c2c(F)cccc2F)c(Cl)nc(-n2ccc(C)n2)c1=O (stereo not drawn) [compound 66] | 0 | 0 | – | – | – | 0 | 100* % | – | – | 0 | – | – | – | 0* % | 95* % | 89* % | 99* % | 100* % | 62* % | 97* %
CCC(C)Cn1c(-c2c(F)cccc2F)c(Cl)nc(-n2cnc(C#N)c2C#N)c1=O (stereo not drawn) [compound 67] | 0 | 0 | 0 | – | – | 0 | – | – | – | 0 | – | – | 24 | – | 0* % | 0* % | 0* % | 0* % | 0* % | 0* %
